# Test results from ChEMBL document CHEMBL5604062, “ASAP - ZIKV NS2B-NS3 protease fluorescence dose response” (2024).
# Several values for one entry are separate records, joined by “and”; a condition that tells them apart may be missing. Equal values may be shown once.
# Biological target: Nonstructural protein 3 (Zika virus, UniProt A0A024AXB9)
# Experiment: Functional biochemical assay to identify treatments for viral infectious disease that targets Zika NS2B-NS3 protease. Utilizing a direct enzyme activity measurement method, reading the fluorescence intensity is used to characterize the relative potency of inhibitors as IC50.
# Set-up: species or system PRVABC59
# Nonstructural protein 3, sequence (A0A024AXB9 whole entry): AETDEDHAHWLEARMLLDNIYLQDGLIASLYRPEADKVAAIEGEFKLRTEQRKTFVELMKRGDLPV
row,Structure (SMILES),IC50
1,CCCCCC(=O)N[C@H](C(=O)NCc1cccc(CN)c1)c1ccc(OCc2ccccc2)cc1,73.3 µM and 80.1 µM
2,c1cnc2c(c1)CC[C@@H]2NCc1n[nH]c2ccccc12,> 99.5 µM
3,O=C(N[C@@H](C(=O)NCc1ccccn1)c1ccc(OCc2ccccc2)cc1)OCc1ccccc1,> 99.5 µM
4,CCOc1cc(N2CCN(C)CC2)ccc1NS(=O)(=O)c1ccc(Cl)cc1C(=O)O,> 99.5 µM
5,CCOCC1(c2nc3c(C(=O)Nc4ccc5c(c4)CNC5)cc(F)cc3[nH]2)CC1,0.137 µM
6,O=C(Nc1ccccc1)OCc1ccccc1 [BENZYL PHENYLCARBAMATE],> 100 µM
7,C#C[C@H](Nc1cc([C@H]2CCOC2)ccn1)c1cc(C2CC2)n(C)n1,> 25 µM
8,Cc1cc(NC(=O)OCc2ccccc2)cc(C(=O)Nc2cccc(CN)c2)c1C,> 99.5 µM
9,COCCN1C(=O)CCc2cc(NC(=O)c3cc(C4CC4)n(C)c3C)ccc21,> 25 µM
10,CN1CCc2nc(NC(=O)[C@@H](NC(=O)OCc3ccccc3)c3ccc(OCc4ccccc4)cc3)sc2C1,> 99.5 µM
11,NC1(c2cccc(NC(=O)[C@@H](NC(=O)OCc3ccccc3)c3ccc(OCc4ccccc4)cc3)c2)CCC1,> 99.5 µM
12,O=C(Nc1cc(-c2cccnc2)ccn1)c1cnn2c1CCCC2,8.03 µM
13,c1ccc2c(CN3CCC(c4ccn[nH]4)CC3)c[nH]c2c1,66.2 µM
14,COC1(C(=O)N[C@H](CC(=O)Nc2cccc(CN)c2)c2ccc(OCc3ccccc3)c(Br)c2)CC1,48.7 µM
15,NCc1cccc(NC(=O)[C@@H](NC(=O)OCc2ccccc2)c2ccc(-c3ccccc3F)cc2)c1,8.51 µM
16,N=C(N)NCCc1ccccc1B(O)O,> 100 µM
17,NCc1cccc(NC(=O)[C@@H](NC(=O)OCc2ccccc2)c2cccc(OC[C@H]3CCCO3)c2)c1,> 99.5 µM
18,NCc1cccc(NC(=O)[C@H](NC(=O)c2ccncc2)c2ccc(OCc3ccccc3)cc2)c1,> 99.5 µM
19,CCN1CC[C@@H](COc2ccc([C@@H](NC(=O)OCc3ccccc3)C(=O)Nc3cccc(CN)c3)cc2)C1,> 99.5 µM
20,Cc1cc(NC(=O)c2cc(C3CC3)n(C)c2C)cnc1N1CCCCC1,> 25 µM
21,Cc1cc(C(=O)Nc2cc(-c3cccnc3)ccn2)c(C)n1C,> 25 µM
22,CS(=O)(=O)c1cc(NC(=O)OCc2ccccc2)cc(C(=O)Nc2cccc(CN)c2)c1,> 99.5 µM
23,O=C(N[C@@H](C(=O)NCc1cnccn1)c1ccc(OCc2ccccc2)cc1)OCc1ccccc1,> 99.5 µM
24,NCc1cccc(NC(=O)[C@H](NC(=O)OCc2ccccc2)c2ccc(Br)c(Cl)c2)c1,10.9 µM and 8.65 µM and 8.23 µM and 9.33 µM

row,Structure (SMILES),IC50
1,CC(C)c1cc(-c2ccc([C@@H](NC(=O)OCc3ccccc3)C(=O)Nc3cccc(CN)c3)cc2)on1,24 µM
2,c1nc(C2CCN(Cc3n[nH]c4c3COCC4)CC2)cs1,> 99.5 µM
3,CSc1ccc([C@H](CC(=O)Nc2cccc(CN)c2)NC(=O)OCc2ccccc2)cc1,43.7 µM
4,Cc1cccc(N2CCC(NS(=O)(=O)c3ccc(Cl)cc3C(=O)O)CC2)n1,> 99.5 µM
5,CCn1ccnc(N2CC[C@@H](CC(N)=O)C2)c1=O,> 99.5 µM
6,O=S(=O)(c1c[nH]c2ccccc12)N1CCC(c2cnc3ccc[nH]c2-3)CC1,> 99.5 µM
7,CCCCCC(=O)N[C@H](C(=O)NCc1cccc(CN)c1)C1CCCCC1,> 99.5 µM
8,O=C(O)[C@H]1C[C@H](n2ccc(Cc3c[nH]c4ccc(Cl)cc34)n2)C1,> 99.5 µM
9,CCn1cc(-c2cncc(OC)c2)nc(N2CC[C@@H](CO)C2)c1=O,> 99.5 µM
10,CCn1nc(-c2ccccc2)cc1NS(=O)(=O)c1ccc(Cl)cc1C(=O)O,29.6 µM
11,Cn1ccc(-c2cc(CN)cc([C@@H]3C[C@H]3c3cc(Cl)cc(NC(=O)OCc4ccccc4)c3)c2)n1,8.05 µM
12,NCc1cccc(NC(=O)[C@@H](NC(=O)OCc2ccccc2)c2ccc(F)c(F)c2)c1,> 99.5 µM
13,NCc1cccc(NC(=O)c2cc(CO)cc(NC(=O)OCc3ccccc3)c2)c1,> 99.5 µM
14,CCn1cc(-c2ccccc2)nc(N2CC[C@@H](CO)C2)c1=O,> 99.5 µM
15,Nc1ccc(/C=C/C(=O)C(=O)N2CCN(CCc3ccccc3)CC2)cc1,> 99.5 µM
16,NCc1cccc(NC(=O)c2cccc3c2O[C@H](c2ccccc2)C(=O)N3)c1,56.4 µM
17,CCc1nccn1CC(=O)Nc1ccc2c(c1)CNC2,> 99.5 µM
18,FC(F)(F)c1nc(CNCc2cocn2)cs1,> 99.5 µM
19,NCc1cccc(NC(=O)[C@@H](NC(=O)OCc2ccccc2)c2ccc(OCc3ccccc3)cc2)c1,11.6 µM
20,NCc1cccc(NC(=O)[C@H](NC(=O)OCc2ccccc2)C2CCN(CCc3ccccc3)CC2)c1,> 99.5 µM
21,NCc1cccc(NC(=O)[C@H]2c3ccccc3CCN2C(=O)OCc2ccccc2)c1,> 99.5 µM
22,CCn1cc(C(=O)N2CCN(C)CC2)nc(N2CC[C@@H](CO)C2)c1=O,> 99.5 µM
23,O=C(N[C@@H](C(=O)Nc1ccc2c(n1)CNC2)c1ccc(OCc2ccccc2)cc1)OCc1ccccc1,> 99.5 µM
24,N[C@H]1CC[C@H](NC(=O)[C@@H](NC(=O)OCc2ccccc2)c2ccc(OCc3ccccc3)cc2)C1,> 99.5 µM

row,Structure (SMILES),IC50
1,O=C1Cc2c(cccc2C(=O)N[C@H]2C[C@@H](c3ncc[nH]3)C2)N1,> 25 µM
2,NCc1cc(CO)cc([C@H]2C[C@@H]2c2cc(Cl)cc(NC(=O)OCc3ccccc3)c2)c1,10.4 µM
3,CN(C)Cc1nnc(NC(=O)[C@@H](NC(=O)OCc2ccccc2)c2ccc(OCc3ccccc3)cc2)s1,> 99.5 µM
4,NC(=O)c1cnccc1N1CCN(Cc2c[nH]c3ccccc23)CC1,> 99.5 µM
5,CN1CC=C(c2cccc([C@@H](NC(=O)OCc3ccccc3)C(=O)Nc3cccc(CN)c3)c2)CC1,67.5 µM
6,CCn1c(=O)c(N2CC(S(=O)(=O)N3CCCC3)C2)nc2ccccc21,> 99.5 µM
7,NCc1cccc(NC(=O)C[C@H](NC(=O)OCc2ccccc2)C2CCCCC2)c1,83.1 µM and 78.1 µM
8,CNC(=O)[C@]1(Nc2ccc3c(c2)CNC3)C(=O)Nc2ccccc21,> 99.5 µM
9,O=C(O)Cc1cn2nc(-c3cc(Cl)cc(NC(=O)OCc4ccccc4)c3)ccc2n1,> 99.5 µM
10,O[C@@H]1CNC[C@H]1c1c[nH]c2ccccc12,> 99.5 µM
11,Cn1ncc2cc(C(=O)N3CCC(NC(=O)[C@]4(C)CCC[C@H]4O)CC3)cc(O)c21,> 99.5 µM
12,CCCc1sc(C(=O)Nc2ccc3c(c2)CNC3)cc1CC,20.1 µM
13,O=C(N[C@H](C(=O)NCc1ccccc1CO)c1ccc(OCc2ccccc2)cc1)OCc1ccccc1,> 99.5 µM
14,CS(=O)(=O)c1cc2c(cc1NC(=O)c1cc(F)cc3[nH]ncc13)CNC2,0.2 µM
15,Cc1ccc(S(=O)(=O)CCCn2ccc3sccc3c2=O)cc1,> 99.5 µM
16,O=S(=O)(CCOc1ccccc1)c1nccs1,> 99.5 µM
17,NCc1cccc(NC(=O)[C@@H](NC(=O)OCc2ccccc2)c2ccc(OC[C@H]3CCS(=O)(=O)C3)cc2)c1,> 99.5 µM
18,CCn1c(=O)c(N2CC[C@@]3(COC(=O)N3)C2)nc2ccccc21,> 99.5 µM
19,c1ccc2oc(C3CCN(Cc4c[nH]c5ccccc45)CC3)nc2c1,60.6 µM
20,c1ccc2c(CN3CCN(c4ccncc4)CC3)c[nH]c2c1,98 µM
21,CCn1cc(C(=O)O)nc(N2CC[C@@H](CO)C2)c1=O,> 99.5 µM
22,COc1ccc(Cl)cc1[C@H](Nc1ccc2c(c1)CNC2)C(=O)NCC(F)F,0.061 µM and 0.053 µM

# Next, values leading:
row,IC50,Structure (SMILES)
1,44.5 µM,CN(C)CCc1ccc(NC(=O)c2cc(Cl)cc(NC(=O)OCc3ccccc3)c2)cc1
2,31.3 µM,Cn1nc(CCN)nc1NC(=O)c1cc(Cl)cc(NC(=O)OCc2ccccc2)c1
3,> 99.5 µM,Cc1c(C(=O)NCc2ccc(CN)cc2)cc(C2CC2)n1C
4,22.7 µM,O=C(Nc1cc(Cl)cc([C@H](C#CCO)Nc2ccc(-c3nn[nH]n3)cc2)c1)OCc1ccccc1
5,> 99.5 µM,CNC(=O)[C@H](Nc1cc(Cl)cc(NC(=O)OCc2ccccc2)c1)c1cccc(-c2nn[nH]n2)c1
6,0.199 µM,COC(=O)[C@H](C)n1cc2c(C(=O)Nc3ccc4c(c3)CNC4)cc(Cl)cc2n1
7,31.1 µM,CC(C)CNC(=O)[C@H](Nc1cccc(-c2nn[nH]n2)c1)c1cc(Cl)cc(NC(=O)OCc2ccccc2)c1
8,40.3 µM,O=C(Nc1cc(Cl)cc(C(=O)Nc2n[nH]c3c2CNC3)c1)OCc1ccccc1
9,> 99.5 µM,N#Cc1cc(Cl)cc(-c2ccc3[nH]c(C(=O)O)cc3c2)c1
10,> 99.5 µM,CC(C)c1nc2cc(Cl)ccc2n1Cc1ccc(-c2nn[nH]n2)cc1
11,8.73 µM and 11.6 µM,O=C(Nc1cc(Cl)cc(C(=O)Nc2cccc([C@H]3CCNC3)c2)c1)OCc1ccccc1
12,17.7 µM,NCc1cccc(NC(=O)c2cc(Cl)ccc2-n2cncn2)c1
13,1.54 µM,O=C(Nc1ccc2c(c1)CNC2)c1cc(Cl)nc2[nH]ncc12
14,> 99.5 µM,O=C(O)c1cc2cc(-c3cccc([C@H]4CCOC4)n3)ccc2[nH]1
15,13.3 µM,Cn1cc(-c2cc(CN)cc([C@@H]3C[C@H]3c3cc(Cl)cc(NC(=O)OCc4ccccc4)c3)c2)cn1
16,0.079 µM and 0.07 µM,O=C(Nc1ccc2c(c1)CNC2)c1cc(Cl)cc2ccncc12

row,IC50,Structure (SMILES)
1,25.4 µM and 25.7 µM,NC[C@H]1CC[C@H](CNC(=O)c2cc(Cl)cc(NC(=O)OCc3ccccc3)c2)CC1
2,1.07 µM,O=C(Nc1ccc2c(c1)CNC2)c1cc(F)cc(-c2ccnn2CC2CC2)c1
3,0.21 µM,C=CC[C@H]1NCc2cc(N[C@H](C(=O)NCC(F)F)c3cc(Cl)cc(C4CC4)c3)ccc21
4,> 99.5 µM,O=C(Nc1ccc(-c2nnn[nH]2)cc1)c1cc(Cl)cc(C2CC2)c1
5,97.3 µM,NCC1CCN(C(=O)c2cc(Cl)cc(NC(=O)OCc3ccccc3)c2)CC1
6,0.645 µM,O=C(Nc1ccc2c(c1)CNC2)c1cc(F)cc(C=C2CCS(=O)(=O)CC2)c1
7,> 25 µM,O=C(Nc1cc(-c2cccnc2)ccn1)c1sc2c(c1Br)CNC2
8,3.8 µM,O=C(Nc1ccc2c(c1)CN(CC(F)F)C2)c1cc(Cl)cc2[nH]ncc12
9,> 25 µM,Cc1c(C(=O)Nc2cccc(-c3ccccc3)c2)cc(C2CC2)n1C
10,1.49 µM,O=C1CCc2cc(C(=O)Nc3ccc4c(c3)CNC4)cc(F)c2N1
11,0.062 µM and 0.049 µM,CSCCNC(=O)[C@H](Nc1ccc2c(c1)CNC2)c1cc(Cl)cc(C2CC2)c1
12,> 25 µM,O=C1Cc2c(cccc2C(=O)Nc2cc([C@H]3CCOC3)ccn2)N1
13,> 25 µM,O=C(Nc1cc(-c2cccnc2)ccn1)c1cc2n(n1)CCC2
14,0.209 µM,O=C(NCC1CCOCC1)[C@H](Nc1ccc2c(c1)CNC2)c1cc(Cl)cc2[nH]ncc12
15,> 99.5 µM,O=S(=O)(Nc1cccc(-c2nnn[nH]2)c1)c1cc(Cl)cc(C(F)(F)F)c1
